A word on the IC50: it is the midpoint of a concentration-inhibition curve.

In this experiment the test system is breast tumor cells MDA-MB-436. Put plainly: MDA-MB-436 cell activity test (CellTiter-Glo, 7 days). The class given is cell-based, human. Conditions: for IC50: 7 days incubation, read-out: IC50 (nM), MDA-MB-436 cell inhibitory activity; for inhibition at 10 µM: MDA-MB-436, MDA-MB-436 cells, read-out: Max inh. % 10 μM. The procedure:
Breast tumor cells MDA-MB-436 were purchased from ATCC, the culture medium was Leibovitz's L-15+10% FBS, and the cells were cultured in a CO2-free incubator at 37° C. On day 1, the cells in the exponential growth phase were collected, and the cell suspension was adjusted to 4000 cells/135 μL with the culture medium. 135 μL of the cell suspension was added to each well of a 96-well cell culture plate and incubated overnight. On day 2, compounds at different concentrations were added, and the plate was placed in the incubator and incubated for 7 days. After the culture was completed, according to operation instructions for a CellTiter-Glo kit (Promega, G7573), 75 μL of CTG solution, which was already pre-melted and equilibrated to room temperature, was added to each well, and the mixture was uniformly mixed for 2 minutes using a microplate shaker. The plate was placed at room temperature for 10 minutes, and then […] signal values were determined using an Envision2104 plate reader (PerkinElmer). The inhibition rate was calculated using formula (1), where RLUcompound was the readout of the drug treated group, RLUcontrol was the average value of the solvent control group, and RLUblank was the average value of the cell-free well. The IC50 value was calculated using GraphPad Prism software.

Setting [1] is: Homo sapiens, MDA-MB-436, 168 h, MDA-MB-436 cells.

Where two headings read alike, the source gives them in different places.

Regarding `CCc1cc2ncc(CN3CCN(c4ccc(C(=O)NC5CCN(c6cccc(N7CCC(=O)NC7=O)c6)CC5)nc4)CC3)cc2[nH]c1=O` [Compound 62, N-(1-(3-(2,4-dioxotetrahydropyrimidin-1(2H)-yl)phenyl)piperidin-4-yl)-5-(4-((7-ethyl-6-oxo-5,6-dihydro-1,5-naphthyridin-3-yl)methyl)piperazin-1-yl)picolinamide], the 50% inhibitory concentration (IC50) under setting [1] stood at 17.9 nM. Besides, the inhibition at 10 µM (Homo sapiens, 10 μM) was 82.9%.
As for `CCc1cc2ncc(CN3CCN(c4ccc(C(=O)NC5CCN(c6cccc(NC7CCC(=O)NC7=O)c6)CC5)nc4)CC3)cc2[nH]c1=O` (stereo not shown) [Compound 64], the IC50 under setting [1] came to 27.9 nM. Moreover, the inhibition at 10 µM (Homo sapiens, 10 μM) came to 84.9%.
Consider `CCc1cc2ncc(CN3CCN(c4ccc(C(=O)NC5CC(Nc6ccc7c(c6)C(=O)N([C@@H]6CCC(=O)NC6=O)C7=O)C5)nc4)CC3)cc2[nH]c1=O` (stereo partly shown) [Compound 42, N-((1r, 3r)-3-((2-(2,6-dioxopiperidin-3-yl)-1,3-dioxoisoindolin-5-yl)amino)cyclobutyl)-5-(4-((7-ethyl-6-oxo-5,6-dihydro-1,5-naphthyridin-3-yl)methyl)piperazin-1-yl)picolinamide], for which the “Max inh. % 10 μM” value (MDA-MB-436 cells, 10 μM) is given as 86.3%. Besides, where the note is “MDA-MB-436 cells”, the concentration for half-maximal inhibition (IC50) came out at 17 nM.
Regarding `CCc1cc2ncc(CN3CCN(c4ccc(C(=O)NC5CN(c6ccc7c(c6)C(=O)N(C6CCC(=O)NC6=O)C7=O)C5)nc4)CC3)cc2[nH]c1=O` (stereo not shown) [Compound 11, N-(1-(2-(2,6-dioxopiperidin-3-yl)-1,3-dioxoisoindolin-5-yl)azetidin-3-yl)-5-(4-((7-ethyl-6-oxo-5,6-dihydro-1,5-naphthyridin-3-yl)methyl)piperazin-1-yl)picolinamide], the IC50 under setting [1] is 2 nM. In addition, the inhibition at 10 µM (Homo sapiens, 10 μM) turned out to be 99.8%.
As to `CCc1cc2ncc(CN3CC=C(c4ccc(C(=O)NC5CCN(c6cccc(N7CCC(=O)NC7=O)c6)CC5)nc4)CC3)cc2[nH]c1=O` [Compound 63, N-(1-(3-(2,4-dioxotetrahydropyrimidin-1(2H)-yl)phenyl)piperidin-4-yl)-1′-((7-ethyl-6-oxo-5,6-dihydro-1,5-naphthyridin-3-yl)methyl)-1′,2′,3′,6′-tetrahydro-[3,4′-bipyridine]-6-carboxamide], the IC50 under setting [1] was 16.1 nM. The inhibition at 10 µM (Homo sapiens, 10 μM) amounted to 83.1%.
As for `CCc1cc2ncc(CN3CCN(c4ccc(C(=O)NC5CCN(CC6CCN(Cc7ccc(-n8c(O)nnc8-c8cc(C(C)C)c(O)cc8O)cc7)CC6)CC5)nc4)CC3)cc2[nH]c1=O` [Compound 8, N-(1-((1-(4-(3-(2,4-dihydroxy-5-isopropylphenyl)-5-hydroxy-4H-1,2,4-triazol-4-yl)benzyl)piperidin-4-yl)methyl)piperidin-4-yl)-5-(4-((7-ethyl-6-oxo-5,6-dihydro-1,5-naphthyridin-3-yl)methyl)piperazin-1-yl)picolinamide], under setting [1], the IC50 came to 15 nM. The inhibition at 10 µM (Homo sapiens, 10 μM) turned out to be 99.8%.
As for `CCc1cc2ncc(CN3CCN(c4ccc(C(=O)N[C@H]5C[C@@H](Nc6ccc7c(c6)C(=O)N(C6CCC(=O)NC6=O)C7=O)C5)nc4)CC3)cc2[nH]c1=O` (stereo partly shown) [Compound 37, N-((1s,3s)-3-((2-(2,6-dioxopiperidin-3-yl)-1,3-dioxoisoindolin-5-yl)amino)cyclobutyl)-5-(4-((7-ethyl-6-oxo-5,6-dihydro-1,5-naphthyridin-3-yl)methyl)piperazin-1-yl)picolinamide], under setting [1], the IC50 was 23 nM. Under “Homo sapiens, 10 μM”, the inhibition at 10 µM was 92.1%.
With `CCc1cc2ncc(CN3CCN(c4ccc(C(=O)NC5CCN(C(=O)CC67CC8C[C@H](C6)C[C@H](C8)C7)CC5)nc4)CC3)cc2[nH]c1=O` [Compound 12, N-(1-(2-((3R,5R)-adamantan-1-yl)acetyl)piperidin-4-yl)-5-(4-((7-ethyl-6-oxo-5,6-dihydro-1,5-naphthyridin-3-yl)methyl)piperazin-1-yl)picolinamide], the IC50 under setting [1] turned out to be 44 nM. The inhibition at 10 µM (Homo sapiens, 10 μM) was 89.6%.

The record behind these values is patent US20250222116A1, “PARP-1 DEGRADATION AGENT AND USE THEREOF” (XIZANG HAISCO PHARMACEUTICAL CO., LTD., priority 2021, published 2025).
